# Measured values published in US20050256103A1, “Indole derivative having piperidine ring” (Eisai Co., Ltd., priority 2004, published 2005).
# pIC50: −log10 of the molar value. Read-outs that look alike come from different tables or passages of the source.
# Legend:
# 5-HT1A receptor = target: T1, 5-HT1A receptor (Sus scrofa, UniProt A0A4X1UTF5); experiment: Affinity for serotonin 1A receptor: inhibition of [3H]MPPF binding in swine hippocampal membrane fraction; details: for pIC50: [3H]MPPF 0.5 nM, swine hippocampal membrane, 37°C 30 min; for L/H ratio: low affinity IC50 divided by high affinity IC50, 1 or smaller = no intrinsic activity, 2 or greater = intrinsic activity
# T1 construct: Swine hippocampus was homogenized in a 50 mM Tris-Hcl buffer; from tissue; host or cells: swine hippocampus, membrane fraction
# T1 sequence (A0A4X1UTF5 1-422): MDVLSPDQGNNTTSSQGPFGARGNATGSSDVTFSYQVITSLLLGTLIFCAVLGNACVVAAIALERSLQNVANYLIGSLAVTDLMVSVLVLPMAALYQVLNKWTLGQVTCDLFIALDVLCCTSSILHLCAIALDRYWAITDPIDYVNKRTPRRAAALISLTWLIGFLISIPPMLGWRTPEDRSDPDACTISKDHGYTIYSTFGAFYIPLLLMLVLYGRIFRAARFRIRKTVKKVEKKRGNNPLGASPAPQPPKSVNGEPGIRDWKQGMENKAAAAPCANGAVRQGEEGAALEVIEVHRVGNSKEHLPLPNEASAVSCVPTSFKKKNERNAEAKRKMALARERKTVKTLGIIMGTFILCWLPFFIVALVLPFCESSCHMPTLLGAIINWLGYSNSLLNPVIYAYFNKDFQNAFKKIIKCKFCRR
# From the text: (1) The affinity of a test substance for a 5-HT1A receptor was examined by an inhibition experiment, in which the inhibitory effect of the test substance against the binding of [^3H]-4-(2′-methoxy)phenyl-1-(2′-(N-2″-pyridinyl)-p-fluorobenzamido)ethyl-piperazine (MPPF) that selectively binds to the 5-HT1A receptor in a swine hippocampal membrane fraction was examined. The 5-HT1A receptor that is a G-protein binding receptor becomes a G-protein binding state with addition of MgCl2. In contrast, it becomes a G-protein non-binding state with addition of guanylylimido diphosphate (Gpp(NH)p). […] Thus, both the affinity of a test substance to the receptor that was in a state of not binding to the G-protein and the affinity of the test substance to the receptor that was in a state of binding to the G-protein were obtained. Then, the obtained values were compared to each other, so as to estimate the level of the intrinsic activity of the test substance. Theoretically, when the value (L/H) obtained by dividing the affinity of a test substance to the receptor that is in a low affinity state (IC50 value) by the affinity of a test substance to the receptor that is in a high affinity state (IC50 value) is 1 or less, the intrinsic activity thereof is zero. The greater this value, the higher the intrinsic activity that can be obtained.
# Swine hippocampus was homogenized in a 50 mM Tris-Hcl buffer (pH 7.4; hereinafter referred to as buffer A) that had been cooled on ice. The suspension was centrifuged at 40,000×g for 15 minutes. The obtained pellet was suspended in buffer solution A, and the thus obtained solution was then centrifuged at 40,000×g for 15 minutes. The same operation was repeated 2 or 3 times. The finally obtained pellet was suspended in a buffer solution A in an amount 10 times the wet weight of the swine hippocampus, so as to obtain a membrane fraction. The obtained membrane fraction was stored at −80° C. until use.
# A mixture (0.5 ml) used for incubation comprised an appropriate amount of the membrane fraction, a test substance with a desired concentration, MgCl2 (final concentration: 10 mM) or Gpp(NH)p (final concentration: 1 mM), [^3H]MPPF (final concentration: 0.5 nM), dimethyl sulfoxide (final concentration: 1% (v/v)), and a 50 mM Tris-Hcl buffer (pH 7.4). The reaction was initiated with addition of the membrane fraction, and the mixture was incubated at 37° C. for 30 minutes. After completion of the incubation, the mixture was subjected to vacuum filtration with a glass filter, using Cell Harvester. The filter was washed with buffer solution A that had been cooled on ice. Thereafter, radioactivity binding to the receptor was measured with a liquid scintillation counter. Non-specific binding was defined as binding detected in the presence of 10 μM WAY-100,635.
# serotonin 1A receptor = target: T2, serotonin 1A receptor (Mus musculus, UniProt Q64264); experiment: Antagonistic effect on serotonin 1A receptor agonist (8-OH-DPAT)-induced hypothermia in mouse; type: in vivo; details: CD-1 (ICR) male mice; inhibition of hypothermia by 8-OH-DPAT 0.5 mg/kg sc; test substance 15 minutes before agonist
# T2 construct: into the rectum of CD-1 (ICR) male mice (25-45 g); from tissue; host or cells: living CD-1 (ICR) male mice (in vivo)
# T2 sequence (Q64264 1-421): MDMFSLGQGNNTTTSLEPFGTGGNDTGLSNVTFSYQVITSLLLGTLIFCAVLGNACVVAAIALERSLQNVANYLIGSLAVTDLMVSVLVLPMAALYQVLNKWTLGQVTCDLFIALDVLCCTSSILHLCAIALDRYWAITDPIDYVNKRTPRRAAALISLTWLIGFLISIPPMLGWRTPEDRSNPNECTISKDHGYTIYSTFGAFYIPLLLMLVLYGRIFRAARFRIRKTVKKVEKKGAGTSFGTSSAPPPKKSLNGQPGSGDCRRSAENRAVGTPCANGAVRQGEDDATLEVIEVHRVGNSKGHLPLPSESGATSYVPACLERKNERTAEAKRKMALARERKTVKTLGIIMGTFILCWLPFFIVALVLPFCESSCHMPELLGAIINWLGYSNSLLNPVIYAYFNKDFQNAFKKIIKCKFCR
# Protocol: (1) A thermistor probe was inserted at a depth of approximately 2 cm into the rectum of CD-1 (ICR) male mice (25-45 g), so as to measure the body temperature thereof. Body temperature is decreased by subcutaneous administration of serotonin 1A receptor agonist (8-hydroxy-dipropylaminotetralin (8-OH-DPAT) 0;5 mg/kg. Since a serotonin 1A antagonist inhibits such action, the antagonistic effect of a test substance to a serotonin 1A receptor was evaluated using the inhibitory effect of the hypothermia as an index. The test results are shown in Table 2 indicated below. A test substance was administered 15 minutes before the administration of the serotonin 1A agonist. A serotonin 1A partial agonist alone decreases the body temperature, depending on the degree of the agonistic action thereof. In addition, it has a weak antagonistic effect on 8-OH-DPAT-induced hypothermia.
# [1] = receptor in high affinity (G-protein binding, MgCl2 10 mM) state, read-out: High affinity IC50
# [2] = receptor in low affinity (G-protein non-binding, Gpp(NH)p 1 mM) state, read-out: Low affinity IC50
pIC50 (5-HT1A receptor; [1]),pIC50 (5-HT1A receptor; [2]),L/H ratio (5-HT1A receptor),ED50 (serotonin 1A receptor),SMILES
9.74,9.62,1.3,"0.1 mg/kg, sc","COc1cc2c(cc1CCN1CCC(n3ccc4ccc(C(N)=O)cc43)CC1)N(C)C(=O)CC2 [Compound 57, 1-{1-[2-(6-methoxy-1-methyl-2-oxo-1,2,3,4-tetrahydroquinolin-7-yl)ethyl]piperidin-4-yl}-1H-indole-6-carboxamide]"
9.48,9.41,1.2,"0.53 mg/kg, sc","CNC(=O)c1ccc2ccn(C3CCN(CCc4cc5c(cc4OC)CCC(=O)N5C)CC3)c2c1 [Compound 58, 1-{1-[2-(6-methoxy-1-methyl-2-oxo-1,2,3,4-tetrahydroquinolin-7-yl)ethyl]piperidin-4-yl}-N-methyl-1H-indole-6-carboxamide]"
9.34,9.47,0.7,,"COc1ccc2c(c1CCN1CCC(n3ccc4ccc(C(N)=O)cc43)CC1)CC(C)(C)C2=O [Compound 14, 1-{1-[2-(5-methoxy-2,2-dimethyl-1-oxoindan-4-yl)ethyl]piperidin-4-yl}-1H-indole-6-carboxamide]"
9.68,9.68,1,,"COc1cc2c(cc1CCN1CCC(n3ccc4ccc(C(N)=O)cc43)CC1)C(O)CC2 (stereo not drawn) [Compound 50, 1-{l-[2-(3-hydroxy-6-methoxyindan-5-yl)ethyl]piperidin-4-yl}-1H-indole-6-carboxamide]"
10.15,10.40,0.5,,"COc1cc2c(cc1CCN1CCC(n3ccc4ccc(C(N)=O)cc43)CC1)NC(=O)CC2 [Compound 56, 1-{1-[2-(6-methoxy-2-oxo-1,2,3,4-tetrahydroquinolin-7-yl)ethyl]piperidin-4-yl}-1H-indole-6-carboxamide]"
9.66,10.00,0.4,,"CON=C1CCc2c(CCN3CCC(n4ccc5ccc(C(N)=O)cc54)CC3)c(OC)cc(OC)c21 [Compound 11, 1-{1-[2-(5,7-dimethoxy-1-methoxyiminoindan-4-yl)ethyl]piperidin-4-yl}-1H-indole-6-carboxamide]"
8.96,9.16,0.6,,"CON=C1CCCc2c1ccc(OC)c2CCN1CCC(n2ccc3ccc(C(N)=O)cc32)CC1 [Compound 19, 1-{1-[2-(2-methoxy-5-methoxyimino-5,6,7,8-tetrahydronaphthalen-1-yl)ethyl]piperidin-4-yl}-1H-indole-6-carboxamide]"
9.49,9.66,0.7,,"CON=C1CCCOc2cc(OC)c(CCN3CCC(n4ccc5ccc(C(N)=O)cc54)CC3)cc21 [Compound 13, 1-{1-[2-(8-methoxy-5-methoxyimino-2,3,4,5-tetrahydrobenzo[b]oxepin-7-yl)ethyl]piperidin-4-yl}-1H-indole-6-carboxamide]"
9.14,9.21,0.8,,CNC(=O)c1ccc2ccn(C3CCN(CCc4c(OC)ccc5nc(C)oc45)CC3)c2c1 [Compound 15]
9.77,9.80,0.9,,"COc1cc2c(cc1CCN1CCC(n3ccc4ccc(C(N)=O)cc43)CC1)C(=O)CCCO2 [Compound 12, 1-{1-[2-(8-methoxy-5-oxo-2,3,4,5-tetrahydrobenzo[b]oxepin-7-yl)ethyl]piperidin-4-yl}-1H-indole-6-carboxamide]"
9.47,9.52,0.9,,"COc1ccc2cccnc2c1CCN1CCC(n2ccc3ccc(C(N)=O)cc32)CC1 [Compound 29, 1-{1-[2-(7-methoxyquinolin-8-yl)ethyl]piperidin-4-yl}-1H-indole-6-carboxamide]"
9.89,10.05,,,"COc1cc2c(cc1CCN1CCC(n3ccc4ccc(C(N)=O)cc43)CC1)N(C)C(=O)OC2 [Compound 39, 1-{1-[2-(6-methoxy-methyl-oxo-1,4-dihydro-2H-benz[d][1,3]oxazin-7-yl)ethyl]piperidin-4-yl}-1H-indole-6-carboxamide]"
9.26,9.41,0.7,,"COc1ccc2c(c1CCN1CCC(n3ccc4ccc(C(N)=O)cc43)CC1)OCC(C)(C)C2=O [Compound 37, 1-{1-[2-(7-methoxy-3,3-dimethyl-4-oxochroman-8-yl)ethyl]piperidin-4-yl}-1H-indole-6-carboxamide]"
9.74,9.77,0.9,,"CNC(=O)c1ccc2ccn(C3CCN(CCc4cc5nc(C)oc5cc4OC)CC3)c2c1 [Compound 16, 1-{1-[2-(6-methoxy-2-methylbenzoxazol-5-yl)ethyl]piperidin-4-yl}-N-methyl-1H-indole-6-carboxamide]"
9.66,9.82,0.7,,"COc1ccc2c(c1CCN1CCC(n3ccc4ccc(C(N)=O)cc43)CC1)OC1(CCOCC1)CC2=O [Compound 43, 1-{1-[2-(7-methoxy-4-oxo-spiro(chroman-2,4′-oxan)-8-yl)ethyl]piperidin-4-yl}-1H-indole-6-carboxamide]"

SMILES,pIC50 (5-HT1A receptor; [1]),pIC50 (5-HT1A receptor; [2]),L/H ratio (5-HT1A receptor),ED50 (serotonin 1A receptor)
"COCC1(C)CC(=O)c2ccc(OC)c(CCN3CCC(n4ccc5ccc(C(N)=O)cc54)CC3)c2O1 (stereo not shown) [Compound 40, 1-{1-[2-(7-methoxy-2-methoxymethyl-2-methyl-4-oxochroman-8-yl)ethyl]piperidin-4-yl}-1-H-indole-6-carboxamide]",9.74,9.77,0.9,
"COc1ccc2c(c1CCN1CCC(n3ccc4ccc(C(N)=O)cc43)CC1)OC1(CCCC1)CC2=O [Compound 41, 1-{1-[2-(7-methoxy-4-oxo-spiro(chroman-2,1′-cyclopentan)-8-yl)ethyl]piperidin-4-yl}-1H-indole-6-carboxamide]",9.70,9.85,0.7,
